Patent publication US20050187141A1, “Control of gene induced by oxidated lipids in human artery wall cells” (The Regents of the University of California, priority 2000, published 2005)

Key:
[1] = Lipoprotein cholesterol levels (FPLC) in apo E deficient mice; type: in vivo; details: 2.0 mg/ml in drinking water, 24 and 48 hrs, FIG. 6
Method: Apo E deficient mice were purchased from Jackson Laboratories (Bar Harbor, Me.). The mice were 5 weeks old at the time of the experiments. The animals were maintained on a chow diet containing 4% fat, obtained from Ralston-Purina (St. Louis, Mo.). Synthetic 1,2-ditetradecanoyl-sn-glycero-3-phosphocholine (shown in the figure as circles at 24 h and as triangles at 48 h and abbreviated as DGP; 99+% purity, catalog # P 2663, Lot # 17H8362, Sigma Chemical Company, St. Louis Mo.) was added at 2.0 mg/ml to the drinking water of one group of apo E deficient mice (n=5). […] After 24 and 48 hrs blood was collected from the retroorbital sinus under mild anesthesia into heparinized tubes under an approved protocol of the UCLA Animal Research Committee. Plasma was separated and was fractionated using fast protein liquid chromatography (FPLC). Cholesterol content of the fractions was determined using a kit (Infinity reagent) obtained from Sigma Chemical Company.

paraoxonase-1 (PON1) = test: Paraoxonase activity of plasma fractions of apo E deficient mice; type: in vivo; details: 2.0 mg/ml in drinking water, FIG. 7
Method: Plasma fractions obtained as described in above were analyzed for paraoxonase activity using paraoxon a substrate as reported by Watson et al. (1995) J Clin Invest., 96: 2882-2891). The control samples are shown as diamonds in the figure.

[2] = test system: Human artery wall cell cocultures; test: HDL protective capacity and LDL susceptibility to oxidation in human artery wall cell cocultures; type: in vivo, apo E deficient mice; details: 18 hrs, FIG. 8
Method: Plasma fractions obtained as described above were pooled in the region containing LDL and the region containing HDL. Human artery wall cell cocultures were prepared as reported previously (Navab et al. (1997) J Clin Invest., 99: 2005-2019) and used to determine the extent of LDL oxidation as judged by the level of monocyte chemotactic activity generated by oxidized LDL. As the assay controls, to some wells containing the artery wall cocultures was added a standard human LDL (h LDL) at 200 μg LDL protein per ml. To other wells was added h LDL+human HDL (h HDL) at 350 μg HDL protein per ml. The protective capacity of HDL obtained from apo E deficient mice was then tested. To some wells was added standard human LDL (Std. h LDL) at 200 μg LDL protein per ml plus 50 μg of HDL cholesterol obtained from the mice that had received drinking water without additions (Std. h LDL+Cont. E null HDL). To other wells in addition to human LDL, HDL (at 50 μg cholesterol/ml) obtained from mice given drinking water containing 2.0 mg per ml of 1,2-dimyristoyl-sn-glycero-3-phosphocholine (1,2-ditetradecanoyl-sn-glycero-3-phosphocholine) (Std. h LDL+DGP HDL) was added and incubated for 18 hrs. LDL susceptibility to oxidation was additionally determined. […] The values are mean±SD of the number of monocytes counted in 9 high power fields from quadruple wells. […]

fatty streak lesions = test: Fatty streak lesions in apo E deficient mice; type: in vivo; details: 1.0 mg/ml in drinking water, 5 weeks, FIG. 9
Method: Apo E deficient mice were purchased from Jackson Laboratories (Bar Harbor, Me.). The mice were 5 weeks old at the time of the experiments. The animals were maintained on a chow diet containing 4% fat, obtained from Ralston-Purina (St. Louis, Mo.). One group (n=10) was given in their drinking water 1.0 mg/ml of 1,2-dimyristoyl-sn-glycero-3-phosphocholine (1,2-ditetradecanoyl-sn-glycero-3-phosphocholine) (shown as DGP on the figure, approximately 99% pure, catalog # P 7331, Sigma Chemical Company, St. Louis, Mo.). […] After 5 weeks of treatment, the animals were sacrificed and hearts were harvested and processed according to the methods described by Qiao et al. (1994) Arterioscl Thromb, 14: 1480-1497). In brief, 10 μm thick cryosections were stained with Oil red 0 and hematoxylin and counterstained with fast green and examined by light microscopy for the identification of atheromatous lesions. Lesion size was measured using a 1.0 cm optical grid with 20×20 grid lines. Under 10× magnification, each square corresponded to 1/400 mm^2 (or 2500 μm^2). A square with lipophilic stain was counted as lesion if the visually observed stain covered at least 1/8th of the square.

lesions = test: Lesion regression in 10 month old apo E deficient mice; type: in vivo; details: 1.0 mg/ml in drinking water for five weeks after 10 months on chow, FIG. 10
Method: Apo E deficient mice were purchased from Jackson Laboratories (Bar Harbor, Me.). The mice were maintained on a chow diet containing 4% fat, obtained from Ralston-Purina (St. Louis, Mo.) for 10 months at which time one group (n=5) were sacrificed and lesions determined. A second group (n=8) received 1.0 mg/ml of synthetic 1,2-ditetradecanoyl-sn-glycero-3-phosphorylcholine (DGP, approximately 99% pure, catalog # P 7331, Sigma Chemical Company, St. Louis, Mo.) in their drinking water for another five weeks. […] After 5 weeks of treatment, the animals were sacrificed. The hearts and blood vessels from the three groups were harvested and processed as previously reported (Qiao 1994) to determine lesion area.

influenza A = details: injected, mice; cited from earlier work
human MKP-1 = test: Western blot of MKP-1 protein in Ox-PAPC treated HAECs after oligonucleotide transfection; type: cell-based; details: oligonucleotide 100 nM, 18 h, then Ox-PAPC 50 μg/ml 4 h, FIG. 3A, 3B
Method: (§1) HAECs were transfected with either ‘antisense’ or ‘sense’ phosphorothioate oligonucleotides (100 nM) to human MKP-1. Eighteen hours later, control and transfected cells were either left untreated or treated with Ox-PAPC (50 μg/ml) for an additional four hours.

[3] = test system: human aortic endothelial cells; test: Monocyte adhesion assay with supernatants of Ox-PAPC treated HAECs; type: cell-based; details: oligonucleotide 100 nM, 18 h, then Ox-PAPC 50 μg/ml 4 h, FIG. 4
Method: as §1, with “Human aortic endothelial cells” for “HAECs”, “hours. Following the treatments, cell supernatants were collected and analyzed in a monocyte adhesion assay.” for “hours.”

[4] = test system: human aortic endothelial cells; test: Monocyte chemotactic activity of supernatants of Ox-PAPC treated HAECs; type: cell-based; details: oligonucleotide 100 nM, 18 h, then Ox-PAPC 50 μg/ml 4 h, FIG. 5A-5C
Method: as §1, with “Human aortic endothelial cells” for “HAECs”, “hours. Following the treatments, cell supernatants were collected and analyzed for monocyte chemotactic activity.” for “hours.”

**Q.** What does the source list for `CCCCCCCCCCCCCC(=O)OC[C@H](COP(=O)([O-])OCC[N+](C)(C)C)OC(=O)CCCCCCCCCCCCC` [1,2-dimyristoyl-sn-glycero-3-phosphocholine]?
**A.** high density lipoprotein (HDL) levels [1]: dramatic increase; very low density lipoproteins (VLDL) or low density lipoproteins (LDL) [1]: without a significant change; content of paraoxonase-1 (PON1) associated with HDL (paraoxonase-1 (PON1)): dramatic increase; HDL protective capacity (protecting LDL against oxidation) ([2]; HDL from mice given 2.0 mg per ml in drinking water, 50 μg cholesterol/ml): more effective in protecting LDL against oxidation; LDL susceptibility to oxidation ([2]; LDL from mice given 2.0 mg per ml in drinking water, 100 μg LDL cholesterol per ml): more resistant to oxidation by artery walls; reduction in atherosclerosis (fatty streak lesions): 84.1%; lesion area change (lesions): dramatic lesion regression

**Q.** With “apo A-I: apo A-I, injected in mice with influenza A in a copending application” as the molecule, how does the “signs and symptoms of influenza A” value (influenza A) read?
**A.** greatly ameliorated

**Q.** For “antisense oligonucleotides: antisense phosphorothioate oligonucleotide to human MKP-1; 5′-GGAACTCAGTGGAACTCAGG-3′ (SEQ ID NO:2) (antisense GGAACTCAGTGGAACTCAGG; all phosphorothioate, sugars by position and methylation of C not given here)”, which “Ox-PAPC-induced MKP-1 protein expression” value (human MKP-1) is on record?
**A.** prevent the accumulation of MKP-1 protein

**Q.** And the “Ox-PAPC induction of monocyte adherence” value [3]?
**A.** did not promote monocyte adhesion

**Q.** What about the “monocyte chemotactic activity / monocyte chemotaxis” value [4] of the same molecule?
**A.** did not promote monocyte chemotaxis
